This note sets out measurements from patent publication US20240377404A1, “BIOLUMINESCENCE-TRIGGERED PHOTOCATALYTIC ACTIVATION” (Promega Corporation, priority 2023, published 2024).

Assay [1] relates to HeLa cells expressing the HT178-cpNLuc-179 chimera. Description: Bioluminescence-triggered uncaging of azido-quenched fluorophores inside cells. It counts as cell-based. The note with it: 2-20 μM fluorophore, 20 μM fluorofurimazine 45 minutes, with/without Ir-9049 or Ru-8974 (3 μM). Here is the method: Structure of exemplary azido quenched fluorophores and a cartoon depicting bioluminescent-triggered fluorescence turn-on are included in FIG. 9. Briefly, upon absorbance of light, the excited catalyst engages in energy transfer events with the azido-quenched fluorophore to generate a nitrene through elimination of an N2 group, which restore the fluorophore's fluorescence. HeLa cells were transfected with a DNA construct encoding HT178-cpNLuc-179 that was diluted 50-fold into promoterless carrier DNA, plated in flasks at 2×10^5 cell/mL, and incubated 16-18 hours at 37° C., 5% CO2. The next day, cells were collated, replated in 24-well plates at 2×10^5 cell/mL, and incubated overnight at 37° C., 5% CO2. […] Cells were then washed twice, 15 minutes each, in HBSS buffer to remove excess unreacted catalyst or chloroalkane-biotin.

The subject of assay [2] is Firefly (FFLY) luciferase. Description: Bioluminescence-triggered uncaging of o-nitrobenzyl-F-luciferin, FFLY luminescence readout. It is filed as biochemical. Here is the method:
(§1) As depicted in FIG. 18A, bioluminescence-triggered ruthenium-catalyzed excitation of o-nitrobenzyl-caged F-luciferin to liberate F-luciferin, which is then available as a substrate for FFLY luciferase. Synthesis of o-nitrobenzyl-caged F-luciferin is provided in Example 11. […] Residual NanoLuc bioluminescence signal was quenched by treatment with 10 mM competitive extracellular NanoLuc inhibitor before subsequent 5-fold dilution into FFLY detection plate comprising FFLY luciferase, ATP, and Bright-Glo buffer. Bioluminescence was measured before and after dilution into the FFLY detection plate.

Assay [3] concerns Firefly (FFLY) luciferase. In words: Bioluminescence-triggered uncaging of p-azidobenzyl-luciferin, FFLY luminescence readout. It is filed as biochemical. Here is the method:
as §1, with “FIG. 17A,” for “FIG. 18A,”, “ruthenium-catalyzed reduction” for “ruthenium-catalyzed excitation”, “of p-azidobenzyl-caged luciferin” for “of o-nitrobenzyl-caged F-luciferin”, “liberate luciferin,” for “liberate F-luciferin,”, “as” for “as a”, “for Firefly (FFLY)” for “for FFLY”

The test system of the next assay is NanoLuc (Nluc) enzyme. In words: Bioluminescence-triggered release of serotonin from caging Ru complex. It counts as biochemical. The note with it: 200 μM RuBi5, 6 nM NanoLuc, 5 μM fluorofurimazine, 40 minutes. Here is the method: As depicted in FIG. 16A, the amino-signaling molecule serotonin is caged through a coordination reaction with the [Ru^2+(bpy)2]2 core. Upon absorbance of light, the excited ruthenium catalyst induces an oxidation-driven release of serotonin while a water molecule occupies the vacant coordination site.
Here, 6 nM NanoLuc (Nluc) enzyme and 5 μM fluorofurimazine, in the presence and absences of 200 μM RuBi5 (Abcam), were incubated in a white plate for 40 minutes. Reactions were then transferred to a black plate, and 200 μM RuBi5 (caged) added to the control wells.

[4] abbreviates: 60 nM HT178-cpNLuc-179 tethered/untethered to Ru-8974, 0-10 μM, with/without 20 μM fluorofurimazine, 45 minutes.
[5] abbreviates: fold increase in FFLY luminescence.

`CC[n+]1c(-c2ccccc2)c2cc(N=[N+]=[N-])ccc2c2ccc(N)cc21.[Br-]` [EMA, Ethidium Monoazide Bromide, reference compound]: the “fluorescence turn-on upon uncaging” value in assay [1] is on record as “pronounced catalyst dependent increase in fluorescence”.

Consider `O=C(O)[C@H]1CSC(c2nc3cc(F)c(OCc4ccc([N+](=O)[O-])cc4)cc3s2)=N1` [o-nitrobenzyl-F-luciferin, (S)-2-(5-fluoro-6-((4-nitrobenzyl)oxy)benzo[d]thiazol-2-yl)-4,5-dihydrothiazole-4-carboxylic acid], for which the “FFLY luminescence after uncaging” value in assay [2] (setting [4]) is “Bioluminescence and Ru-dependent increase in FFLY dependent bioluminescence”. In assay [2] (setting [5]), the “uncaging efficiency, bioluminescence versus LED” value is recorded as “higher efficiency for bioluminescence-driven uncaging compared to LED”.

As for `[N-]=[N+]=Nc1ccc(COc2ccc3nc(C4=N[C@@H](C(=O)O)CS4)sc3c2)cc1` [p-azidobenzyl-luciferin, (S)-2-(6-((4-azidobenzyl)oxy)benzo[d]thiazol-2-yl)-4,5-dihydrothiazole-4-carboxylic acid], the “FFLY luminescence after uncaging” value in assay [3] (setting [4]) was “Bioluminescence and Ru-dependent increase in FFLY dependent bioluminescence”. Also, the “uncaging efficiency, bioluminescence versus LED” value in assay [3] (setting [5]) was “higher efficiency for bioluminescence-driven uncaging compared to LED”.

With [Ru(bpy)2(PMe3)(5HT)]^2+ [RuBi5], in the assay on NanoLuc (Nluc) enzyme, the “serotonin emission after bioluminescence exposure” value is “bioluminescence-dependent increase in the 340 nm peak emission for serotonin”.

On to `CCN(CC)c1ccc2c(C)c(N=[N+]=N)c(=O)oc2c1` [PBI-8977], for which the “fluorescence turn-on upon uncaging” value in assay [1] is recorded as “pronounced catalyst dependent increase in fluorescence”.
